Laboratory results: patent US20260125382A1, “COMPOUNDS FOR INHIBITING OR DEGRADING CDK2 AND/OR CDK9 AND MEDICINAL USE THEREOF” (KOREA RESEARCH INSTITUTE OF CHEMICAL TECHNOLOGY, priority 2022, published 2026)

Key:
CDK2 = target: T1, CDK2 (Homo sapiens, UniProt P24941); experiment: CDK protein degradation activity (Western blotting), CDK2; type: cell-based; conditions: MDA-MB-231 cells, 16 hours, Western blot
T1 construct: endogenous in cells; host or cells: MDA-MB-231
In short: (§1)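 Breast cancer line MDA-MB-231, 16 h compound treatment (100 nM–10 μM final, three doses). Immunoblot quantification of CDK2/CDK9 versus tubulin, normalized to DMSO control.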

CDK9 = target: T2, CDK9 (Homo sapiens, UniProt P50750); experiment: CDK protein degradation activity (Western blotting), CDK9; type: cell-based; conditions: MDA-MB-231 cells, 16 hours, Western blot
T2 construct: endogenous in cells; host or cells: MDA-MB-231
In short: as §1

T2 sequence (P50750 whole entry): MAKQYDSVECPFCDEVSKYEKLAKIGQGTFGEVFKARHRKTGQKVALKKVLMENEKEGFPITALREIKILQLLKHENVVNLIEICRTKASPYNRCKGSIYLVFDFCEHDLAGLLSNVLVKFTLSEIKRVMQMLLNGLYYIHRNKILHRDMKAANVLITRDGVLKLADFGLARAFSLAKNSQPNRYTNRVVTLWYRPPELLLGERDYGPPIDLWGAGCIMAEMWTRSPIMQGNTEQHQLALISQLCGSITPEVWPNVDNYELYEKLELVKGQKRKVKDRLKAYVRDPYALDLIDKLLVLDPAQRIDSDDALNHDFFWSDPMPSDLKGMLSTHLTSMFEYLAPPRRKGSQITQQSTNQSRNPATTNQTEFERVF

Compound	Enzyme degradation CDK2 (% remaining) @ 0.1 μM (CDK2)	Enzyme degradation CDK2 (% remaining) @ 1 μM (CDK2)	Enzyme degradation CDK2 (% remaining) @ 10 μM (CDK2)	Enzyme degradation CDK9 (% remaining) @ 0.1 μM (CDK9)	Enzyme degradation CDK9 (% remaining) @ 1 μM (CDK9)	Enzyme degradation CDK9 (% remaining) @ 10 μM (CDK9)
CC(=O)NC1CC(n2cnc3c(NCC4CCN(CC5CCN(c6cccc7c6C(=O)N([C@H]6CCC(=O)NC6=O)C7=O)CC5)CC4)ncnc32)C1 (stereo partly drawn) [Compound 159, N-((1s,3s)-3-(6-(((1-((1-(2-(2,6-dioxopiperidin-3-yl)-1,3-dioxoisoindolin-4-yl)piperidin-4-yl)methyl)piperidin-4-yl)methyl)amino)-9H-purin-9-yl)cyclobutyl)acetamide]	100%	80%	50%	90%	70%	30%
CC(=O)N[C@H]1C[C@@H](n2cnc3c(NCc4ccc(N5CCN(CC6CCN(C(=O)CNc7ccc8c(c7)C(=O)N([C@H]7CCC(=O)NC7=O)C8=O)CC6)CC5)cc4)ncnc32)C1 [Compound 161, N-((1s,3s)-3-(6-((4-(4-((1-((2-(2,6-dioxopiperidin-3-yl)-1,3-dioxoisoindolin-5-yl)glycyl)piperidin-4-yl)methyl)piperazin-1-yl)benzyl)amino)-9H-purin-9-yl)cyclobutyl)acetamide]	90%	80%	60%	30%	10%	10%
O=C1CC[C@H](N2C(=O)c3ccc(OCC(=O)N4CCC(CN5CCN(c6ccc(Nc7ncnc8c7ncn8[C@H]7C[C@@H](NC(=O)c8c(Cl)cccc8Cl)C7)cc6)CC5)CC4)cc3C2=O)C(=O)N1 [Compound 162, 2,6-dichloro-N-((1s,3s)-3-(6-((4-(4-((1-(2-((2-(2,6-dioxopiperidin-3-yl)-1,3-dioxoisoindolin-5-yl)oxy)acetyl)piperidin-4-yl)methyl)piperazin-1-yl)phenyl)amino)-9H-purin-9-yl)cyclobutyl)benzamide]	50/50/50%	50/50/50%	50/50/50%	0/0/0%	0/0/0%	0/0/0%
O=C1CC[C@H](N2C(=O)c3cccc(OCC(=O)N4CCC(CN5CCN(c6ccc(Nc7ncnc8c7ncn8[C@H]7C[C@@H](NC(=O)c8c(Cl)cccc8Cl)C7)cc6)CC5)CC4)c3C2=O)C(=O)N1 [Compound 163, 2,6-dichloro-N-((1s,3s)-3-(6-((4-(4-((1-(2-((2-(2,6-dioxopiperidin-3-yl)-1,3-dioxoisoindolin-4-yl)oxy)acetyl)piperidin-4-yl)methyl)piperazin-1-yl)phenyl)amino)-9H-purin-9-yl)cyclobutyl)benzamide]	20%	10%	10%	0/0/0%	0/0/0%	0/0/0%
O=C1CC[C@H](N2C(=O)c3ccc(NCC(=O)N4CCC(CN5CCN(c6ccc(Nc7ncnc8c7ncn8C7CC(NC(=O)c8c(Cl)cccc8Cl)C7)cc6)CC5)CC4)cc3C2=O)C(=O)N1 (stereo partly drawn) [Compound 164, 2,6-dichloro-N-((1s,3s)-3-(6-((4-(4-((1-((2-(2,6-dioxopiperidin-3-yl)-1,3-dioxoisoindolin-5-yl)glycyl)piperidin-4-yl)methyl)piperazin-1-yl)phenyl)amino)-9H-purin-9-yl)cyclobutyl)benzamide]	30/30/30%	30/30/30%	30/30/30%	0/0/0%	0/0/0%	0/0/0%
O=C1CC[C@H](N2C(=O)c3cccc(NCC(=O)N4CCC(CN5CCN(c6ccc(Nc7ncnc8c7ncn8[C@H]7C[C@@H](NC(=O)c8c(Cl)cccc8Cl)C7)cc6)CC5)CC4)c3C2=O)C(=O)N1 [Compound 165, 2,6-dichloro-N-((1s,3s)-3-(6-((4-(4-((1-((2-(2,6-dioxopiperidin-3-yl)-1,3-dioxoisoindolin-4-yl)glycyl)piperidin-4-yl)methyl)piperazin-1-yl)phenyl)amino)-9H-purin-9-yl)cyclobutyl)benzamide]	10/10/10%	10/10/10%	10/10/10%	0/0/0%	0/0/0%	0/0/0%
O=C1CC[C@H](N2C(=O)c3ccc(N4CCC(CN5CCN(c6ccc(Nc7ncnc8c7ncn8C7CC(NC(=O)c8c(Cl)cccc8Cl)C7)cc6)CC5)CC4)cc3C2=O)C(=O)N1 (stereo partly drawn) [Compound 166, 2,6-dichloro-N-((1s,3s)-3-(6-((4-(4-((1-(2-(2,6-dioxopiperidin-3-yl)-1,3-dioxoisoindolin-5-yl)piperidin-4-yl)methyl)piperazin-1-yl)phenyl)amino)-9H-purin-9-yl)cyclobutyl)benzamide]	10%	20%	20%	0/0/0%	0/0/0%	0/0/0%
O=C1CC[C@H](N2C(=O)c3cccc(N4CCC(CN5CCN(c6ccc(Nc7ncnc8c7ncn8[C@H]7C[C@@H](NC(=O)c8c(Cl)cccc8Cl)C7)cc6)CC5)CC4)c3C2=O)C(=O)N1 [Compound 167, 2,6-dichloro-N-((1s,3s)-3-(6-((4-(4-((1-(2-(2,6-dioxopiperidin-3-yl)-1,3-dioxoisoindolin-4-yl)piperidin-4-yl)methyl)piperazin-1-yl)phenyl)amino)-9H-purin-9-yl)cyclobutyl)benzamide]	30%	40%	30%	0/0/0%	0/0/0%	0/0/0%

Second part, the compound after the results:

Enzyme degradation CDK2 (% remaining) @ 0.1 μM (CDK2)	Enzyme degradation CDK2 (% remaining) @ 1 μM (CDK2)	Enzyme degradation CDK2 (% remaining) @ 10 μM (CDK2)	Enzyme degradation CDK9 (% remaining) @ 0.1 μM (CDK9)	Enzyme degradation CDK9 (% remaining) @ 1 μM (CDK9)	Enzyme degradation CDK9 (% remaining) @ 10 μM (CDK9)	Compound
50%	10%	10%	80%	40%	10%	O=C1CC[C@H](N2C(=O)c3cccc(OCC(=O)N4CCC(CN5CCC(CNc6ncnc7c6ncn7C6CC(NC(=O)c7c(Cl)cccc7Cl)C6)CC5)CC4)c3C2=O)C(=O)N1 (stereo partly drawn) [Compound 168, 2,6-dichloro-N-((1s,3s)-3-(6-(((1-((1-(2-((2-(2,6-dioxopiperidin-3-yl)-1,3-dioxoisoindolin-4-yl)oxy)acetyl)piperidin-4-yl)methyl)piperidin-4-yl)methyl)amino)-9H-purin-9-yl)cyclobutyl)benzamide]
80%	70%	70%	10%	0%	0%	O=C1CC[C@H](N2C(=O)c3ccc(OCC(=O)N4CCC(CN5CCC(CNc6ncnc7c6ncn7C6CC(NC(=O)c7c(Cl)cccc7Cl)C6)CC5)CC4)cc3C2=O)C(=O)N1 (stereo partly drawn) [Compound 169, 2,6-dichloro-N-((1s,3s)-3-(6-(((1-((1-(2-((2-(2,6-dioxopiperidin-3-yl)-1,3-dioxoisoindolin-5-yl)oxy)acetyl)piperidin-4-yl)methyl)piperidin-4-yl)methyl)amino)-9H-purin-9-yl)cyclobutyl)benzamide]
0%	10%	20%	10%	0%	10%	O=C1CC[C@H](N2C(=O)c3cccc(NCC(=O)N4CCC(CN5CCC(CNc6ncnc7c6ncn7[C@H]6C[C@@H](NC(=O)c7c(Cl)cccc7Cl)C6)CC5)CC4)c3C2=O)C(=O)N1 [Compound 170, 2,6-dichloro-N-((1s,3s)-3-(6-(((1-((1-((2-(2,6-dioxopiperidin-3-yl)-1,3-dioxoisoindolin-4-yl)glycyl)piperidin-4-yl)methyl)piperidin-4-yl)methyl)amino)-9H-purin-9-yl)cyclobutyl)benzamide]
20%	10%	10%	0/0/0%	0/0/0%	0/0/0%	O=C1CCC(N2C(=O)c3ccc(NCC(=O)N4CCC(CN5CCC(CNc6ncnc7c6ncn7[C@H]6C[C@@H](NC(=O)c7c(Cl)cccc7Cl)C6)CC5)CC4)cc3C2=O)C(=O)N1 (stereo partly drawn) [Compound 171, 2,6-dichloro-N-((1s,3s)-3-(6-(((1-((1-((2-(2,6-dioxopiperidin-3-yl)-1,3-dioxoisoindolin-5-yl)glycyl)piperidin-4-yl)methyl)piperidin-4-yl)methyl)amino)-9H-purin-9-yl)cyclobutyl)benzamide]
10%	20%	20%	50%	0%	0%	O=C1CC[C@H](N2C(=O)c3cccc(N4CCC(CN5CCC(CNc6ncnc7c6ncn7C6CC(NC(=O)c7c(Cl)cccc7Cl)C6)CC5)CC4)c3C2=O)C(=O)N1 (stereo partly drawn) [Compound 172, 2,6-dichloro-N-((1s,3s)-3-(6-(((1-((1-(2-(2,6-dioxopiperidin-3-yl)-1,3-dioxoisoindolin-4-yl)piperidin-4-yl)methyl)piperidin-4-yl)methyl)amino)-9H-purin-9-yl)cyclobutyl)benzamide]
